In one experiment the target is human TLR8 (Homo sapiens (Human), UniProt Q9NR97). In words: TLR8 inhibition reporter assay (HEK-Blue SEAP).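 Also: SEAP driven by IFN-β minimal promoter with five NF-κB and AP-1 sites, compounds tested 0.05 nM to 50 µM, 22 h incubation, inhibition relative to agonist plus DMSO wells.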
In a further experiment the target is human TLR7 (Homo sapiens (Human), UniProt Q9NYK1). Kind of experiment: TLR7 inhibition reporter assay (HEK-Blue SEAP). The conditions noted are these: HEK-Blue cells overexpressing human TLR7, gardiquimod 7.5 μM stimulation. The experiment is classed as cell-based.
In the next experiment the target is human TLR9 (Homo sapiens (Human), UniProt Q9NR96). Kind of experiment: TLR9 inhibition reporter assay (HEK-Blue SEAP).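 Also: SEAP driven by IFN-β minimal promoter carrying five NF-κB and AP-1 sites, 22 h at 37 °C, compounds 0.05 nM–50 µM, inhibition scaled between agonist-plus-DMSO and reference-inhibitor wells.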
The mark [1] stands for this setting: read-out: TLR8 IC50, HEK-Blue cells overexpressing human TLR8, R848 15.9 μM stimulation, SEAP reporter.
Where [2] appears, read: read-out: TLR9 IC50, HEK-Blue cells overexpressing human TLR9, ODN2006 5 nM stimulation, SEAP reporter.

Where two headings read alike, the source gives them in different places. Bounds are passed on as bounds.

The IC50 is the concentration that inhibits the measured activity by half.

Sequence of human TLR8 (Q9NR97 27-1041): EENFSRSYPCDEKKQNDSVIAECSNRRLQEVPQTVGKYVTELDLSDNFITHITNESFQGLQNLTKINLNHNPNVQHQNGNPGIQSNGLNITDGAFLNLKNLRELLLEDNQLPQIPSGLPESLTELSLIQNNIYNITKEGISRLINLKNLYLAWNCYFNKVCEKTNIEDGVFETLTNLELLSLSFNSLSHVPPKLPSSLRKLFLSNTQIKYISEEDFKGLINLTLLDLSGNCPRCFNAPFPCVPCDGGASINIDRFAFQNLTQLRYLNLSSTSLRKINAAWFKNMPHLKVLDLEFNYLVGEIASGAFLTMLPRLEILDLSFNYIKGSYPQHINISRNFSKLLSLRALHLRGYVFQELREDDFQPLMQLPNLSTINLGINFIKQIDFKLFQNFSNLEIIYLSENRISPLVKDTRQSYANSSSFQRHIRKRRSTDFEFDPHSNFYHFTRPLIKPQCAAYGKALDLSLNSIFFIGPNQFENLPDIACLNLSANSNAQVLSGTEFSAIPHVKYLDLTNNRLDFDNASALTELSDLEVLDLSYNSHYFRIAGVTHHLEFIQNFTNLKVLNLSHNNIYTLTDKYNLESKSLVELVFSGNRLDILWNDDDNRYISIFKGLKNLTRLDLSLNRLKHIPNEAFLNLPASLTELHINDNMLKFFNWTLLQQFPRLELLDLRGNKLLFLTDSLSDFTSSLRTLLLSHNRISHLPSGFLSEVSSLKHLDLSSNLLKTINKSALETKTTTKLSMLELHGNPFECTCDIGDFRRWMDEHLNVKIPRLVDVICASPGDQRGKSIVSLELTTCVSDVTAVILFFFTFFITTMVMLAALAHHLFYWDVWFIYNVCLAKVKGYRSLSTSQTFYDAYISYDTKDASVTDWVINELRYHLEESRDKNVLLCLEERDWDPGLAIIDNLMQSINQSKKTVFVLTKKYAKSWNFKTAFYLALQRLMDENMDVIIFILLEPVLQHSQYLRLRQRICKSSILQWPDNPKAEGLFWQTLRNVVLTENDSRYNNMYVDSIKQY
Sequence of human TLR7 (Q9NYK1 27-1049): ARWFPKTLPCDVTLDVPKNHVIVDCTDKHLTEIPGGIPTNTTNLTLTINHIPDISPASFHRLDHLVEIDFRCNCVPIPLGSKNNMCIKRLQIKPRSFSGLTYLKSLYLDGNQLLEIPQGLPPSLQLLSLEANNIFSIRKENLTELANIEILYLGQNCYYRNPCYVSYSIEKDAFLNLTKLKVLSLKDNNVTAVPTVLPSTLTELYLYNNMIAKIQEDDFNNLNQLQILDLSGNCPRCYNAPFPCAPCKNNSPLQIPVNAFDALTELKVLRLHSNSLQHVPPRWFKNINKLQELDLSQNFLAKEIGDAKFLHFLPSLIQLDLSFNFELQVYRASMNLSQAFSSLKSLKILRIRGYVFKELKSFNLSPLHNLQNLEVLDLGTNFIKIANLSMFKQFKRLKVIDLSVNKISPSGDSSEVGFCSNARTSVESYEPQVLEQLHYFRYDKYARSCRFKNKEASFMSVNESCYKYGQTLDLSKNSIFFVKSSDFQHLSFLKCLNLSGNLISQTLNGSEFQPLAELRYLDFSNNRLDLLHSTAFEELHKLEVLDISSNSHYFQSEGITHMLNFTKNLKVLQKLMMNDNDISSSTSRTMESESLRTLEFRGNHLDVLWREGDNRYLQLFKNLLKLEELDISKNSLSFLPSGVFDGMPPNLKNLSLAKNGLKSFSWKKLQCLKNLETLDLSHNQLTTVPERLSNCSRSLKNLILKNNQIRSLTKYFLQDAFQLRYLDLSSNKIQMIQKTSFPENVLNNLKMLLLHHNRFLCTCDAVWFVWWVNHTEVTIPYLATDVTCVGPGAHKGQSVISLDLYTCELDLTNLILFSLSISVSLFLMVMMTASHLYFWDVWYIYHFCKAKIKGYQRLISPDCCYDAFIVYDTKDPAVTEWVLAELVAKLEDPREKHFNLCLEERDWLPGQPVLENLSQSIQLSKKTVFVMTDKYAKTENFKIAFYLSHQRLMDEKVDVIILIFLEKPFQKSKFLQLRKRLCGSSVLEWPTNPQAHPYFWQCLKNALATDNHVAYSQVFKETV
Sequence of human TLR9 (Q9NR96 26-1032): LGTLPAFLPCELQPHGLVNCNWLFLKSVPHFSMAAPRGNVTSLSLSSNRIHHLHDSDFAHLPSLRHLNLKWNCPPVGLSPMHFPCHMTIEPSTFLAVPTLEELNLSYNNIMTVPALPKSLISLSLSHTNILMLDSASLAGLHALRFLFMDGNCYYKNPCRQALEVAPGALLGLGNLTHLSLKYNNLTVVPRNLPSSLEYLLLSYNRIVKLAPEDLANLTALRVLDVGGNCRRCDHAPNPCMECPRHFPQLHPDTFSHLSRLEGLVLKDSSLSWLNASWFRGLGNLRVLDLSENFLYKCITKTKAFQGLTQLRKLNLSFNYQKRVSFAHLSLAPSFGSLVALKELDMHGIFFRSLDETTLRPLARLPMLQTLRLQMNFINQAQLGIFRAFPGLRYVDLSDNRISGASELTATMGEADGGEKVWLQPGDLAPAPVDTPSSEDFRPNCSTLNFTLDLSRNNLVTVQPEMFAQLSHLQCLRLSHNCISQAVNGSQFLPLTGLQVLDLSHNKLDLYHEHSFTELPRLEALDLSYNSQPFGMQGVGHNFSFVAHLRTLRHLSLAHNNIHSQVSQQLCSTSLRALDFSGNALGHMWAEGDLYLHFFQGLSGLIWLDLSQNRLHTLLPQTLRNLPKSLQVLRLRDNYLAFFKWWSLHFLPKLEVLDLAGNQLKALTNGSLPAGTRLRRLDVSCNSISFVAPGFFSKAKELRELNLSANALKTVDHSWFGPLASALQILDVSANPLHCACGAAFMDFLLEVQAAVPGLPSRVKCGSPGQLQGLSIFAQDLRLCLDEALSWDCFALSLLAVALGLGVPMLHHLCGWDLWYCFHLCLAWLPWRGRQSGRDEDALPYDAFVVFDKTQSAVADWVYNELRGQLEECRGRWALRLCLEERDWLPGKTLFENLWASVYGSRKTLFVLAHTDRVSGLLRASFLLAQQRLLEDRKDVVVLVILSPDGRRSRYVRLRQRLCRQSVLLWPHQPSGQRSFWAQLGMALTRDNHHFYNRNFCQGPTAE
Method for human TLR8: HEK-Blue™-cells (Invivogen) overexpressing human TLR7, TLR8 or TLR9 receptors were used for screening inhibitors of these receptors using an inducible SEAP (secreted embryonic alkaline phosphatase) reporter gene under the control of the IFN-β minimal promoter fused to five NF-κB and AP-1-binding sites. Briefly, cells are seeded into Greiner 384 well plates (15000 cells per well for TLR7, 20,000 for TLR8 and 25,000 for TLR9) and then treated with test compounds in DMSO to yield a final dose response concentration range of 0.05 nM-50 μM. After a 30 minute compound pre-treatment at room temperature, the cells are then stimulated with a TLR7 ligand (gardiquimod at a final concentration of 7.5 μM), TLR8 ligand (R848 at a final concentration of 15.9 μM) or TLR9 ligand (ODN2006 at a final concentration of 5 nM) to activate NF-κB and AP-1 which induce the production of SEAP. After a 22 hour incubation at 37° C., 500 CO2, SEAP levels are determined with the addition of HEK-Blue™ Detection reagent (Invivogen), a cell culture medium that allows for detection of SEAP, according to manufacturer's specifications.

For the molecule `COc1cc(-c2[nH]c3cnc(N4CCN(C5CCCOC5)CC4)c(F)c3c2C(C)C)cn2ncnc12` (single isomer, unassigned) [Example 386], the IC50 at human TLR8 (setting [1]) is 6.8 nM; against human TLR7 it was 26 nM; on human TLR9 (setting [2]) it was over 50000 nM.
In the same order, the values of `COc1cc(-c2[nH]c3cnc(N4CCN(C5CCCOC5)CC4)c(F)c3c2C(C)C)cn2ncnc12` (single isomer, unassigned) [Example 387] are 13 nM, 33 nM and over 50000 nM.
Taken in the same sequence, the figures for `COc1cc(-c2[nH]c3cnc(C4CCNCC4)c(C)c3c2C(C)C)cn2ncnc12` [Example 1, 6-(3-isopropyl-4-methyl-5-(piperidin-4-yl)-1H-pyrrolo[2,3-c]pyridin-2-yl)-8-methoxy-[1,2,4] triazolo[1,5-a]pyridine] were 89 nM, 4.7 nM and 550 nM.
For the molecule `CNC(=O)CN1CCC(c2ncc3[nH]c(-c4cc(OC)c5ncnn5c4)c(C(C)C)c3c2C)CC1` [Example 2, 2-(4-(3-isopropyl-2-(8-methoxy-[1,2,4]triazolo[1,5-a]pyridin-6-yl)-4-methyl-1H-pyrrolo[2,3-c]pyridin-5-yl)piperidin-1-yl)-N-methylacetamide], the half-maximal inhibitory concentration (IC50) at human TLR8 (setting [1]) was determined as 14 nM; against human TLR7, 1.6 nM; at human TLR9 (setting [2]) it was 398 nM.
Take `COc1cc(-c2[nH]c3cnc(C4CCNCC4)c(F)c3c2C(C)C)cn2ncnc12` [Example 3, 6-(4-fluoro-3-isopropyl-5-(piperidin-4-yl)-1H-pyrrolo[2,3-c]pyridin-2-yl)-8-methoxy-[1,2,4]triazolo[1,5-a]pyridine]: the IC50 on human TLR8 (setting [1]) came to 11 nM; against human TLR7 it was 3.2 nM; at human TLR9 (setting [2]), 1580 nM.
Regarding `Cc1cc(-c2[nH]c3cnc(C4CCNCC4)cc3c2C(C)C)cn2ncnc12` [Example 4, 6-(3-isopropyl-5-(piperidin-4-yl)-1h-pyrrolo[2,3-c]pyridin-2-yl)-8-methyl-[1,2,4]triazolo [1,5-a]pyridine], the 50% inhibitory concentration (IC50) on human TLR8 (setting [1]) turned out to be 973 nM; on human TLR9 (setting [2]), 13100 nM.
`Cc1cc(-c2[nH]c3cnc(C4CCN(C(=O)CN(C)C)CC4)cc3c2C(C)C)cn2ncnc12` [Example 5, 2-(dimethylamino)-1-(4-(3-isopropyl-2-(8-methyl-[1,2,4]triazolo[1,5-a]pyridine-6-yl)-1H-pyrrolo[2,3-c]pyridin-5-yl)piperidin-1-yl)ethan-1-one]: the results for the IC50 at human TLR8 (setting [1]), at human TLR7 and at human TLR9 (setting [2]) were 100 nM, 9.5 nM and 250 nM, respectively.
As to `COc1cc(-c2[nH]c3cnc(N4CCNCC4)c(Cl)c3c2C(C)C)cn2ncnc12` [Example 6, 6-(4-chloro-3-isopropyl-5-(piperazin-1-yl)-1H-pyrrolo[2,3-c]pyridin-2-yl)-8-methoxy-[1,2,4]triazolo[1,5-a]pyridine], the concentration for half-maximal inhibition (IC50) against human TLR8 was found to be 1.4 nM; against human TLR7 it was 0.61 nM; against human TLR9 it was 664 nM.
Consider `COc1cc(-c2[nH]c3cnc(N4CCNCC4)cc3c2C(C)C)cn2ncnc12` [Example 7, 6-(3-isopropyl-5-(piperazin-1-yl)-1H-pyrrolo[2,3-c]pyridin-2-yl)-8-methoxy-[1,2,4]triazolo [1,5-a]pyridine], for which the IC50 at human TLR8 (setting [1]) is 0.56 nM; at human TLR7, 1.5 nM; on human TLR9 (setting [2]) it was 168 nM.
As for `CNCCN1CCC(c2cc3c(C)c(-c4ccc(OC)c(OC)c4)[nH]c3cn2)CC1` [Example 8], the half-maximal inhibitory concentration (IC50) was determined as 15900 nM on human TLR8 (setting [1]), 6640 nM against human TLR7 and 258 nM at human TLR9 (setting [2]).
As to `COc1ccc(-c2[nH]c3cnc(C4CCN(C5CCN(CC(C)C)CC5)CC4)cc3c2C)cc1OC` [Example 9], the IC50 on human TLR8 (setting [1]) was 8220 nM; against human TLR7 it was 551 nM; at human TLR9 (setting [2]), 26 nM.
`CNCC(=O)N1CCC(c2ncc3[nH]c(-c4cc(OC)c5ncnn5c4)c(C(C)C)c3c2F)CC1` [Example 10]: the concentration for half-maximal inhibition (IC50) on human TLR8 (setting [1]) turned out to be 19 nM; against human TLR7 it was 5.6 nM; on human TLR9 (setting [2]), 896 nM.
Turning to `COc1cc(-c2[nH]c3cnc(C4CCN(CC(N)=O)CC4)c(C)c3c2C(C)C)cn2ncnc12` [Example 11], the IC50 on human TLR8 (setting [1]) amounted to 8.3 nM; at human TLR7, 1.6 nM; on human TLR9 (setting [2]) it was 91 nM.
Taken in the same sequence, the figures for `CNCC(=O)N1CCC(c2ncc3[nH]c(-c4cc(OC)c5ncnn5c4)c(C(C)C)c3c2C)CC1` [Example 12] were 273 nM, 53 nM and 866 nM.
For `Cc1c(-c2[nH]c3cnc(C4CCNCC4)c(F)c3c2C(C)C)cn2ncnc2c1C` [Example 13], the half-inhibitory concentration (IC50) at human TLR8 (setting [1]) was 6.8 nM; against human TLR7, 6.5 nM; at human TLR9 (setting [2]), 2780 nM.
Taken in the same sequence, the figures for `COc1cc(-c2[nH]c3cnc(C4CCN(CCS(C)(=O)=O)CC4)c(F)c3c2C(C)C)cn2ncnc12` [Example 14] were 3.4 nM, 3.9 nM and 13000 nM.
In the same order, the values of `Cc1c(-c2[nH]c3cnc(C4CCN(CC(N)=O)CC4)c(F)c3c2C(C)C)cn2ncnc2c1C` [Example 15] are 1.6 nM, 3.5 nM and 13500 nM.
`COc1cc(-c2[nH]c3cnc(C4CCN(C5COC5)CC4)c(C)c3c2C(C)C)cn2ncnc12` [Example 16]: the IC50 on human TLR8 (setting [1]) turned out to be 26 nM; against human TLR7, 4.7 nM; on human TLR9 (setting [2]), 1290 nM.
With `COc1cc(-c2[nH]c3cnc(C4CCN(CC5(C)COC5)CC4)c(F)c3c2C(C)C)cn2ncnc12` [Example 17], the IC50 on human TLR8 (setting [1]) came out at 1.6 nM; on human TLR7, 1.3 nM; at human TLR9 (setting [2]) it was 1860 nM.
`COc1cc(-c2[nH]c3cnc(C4CCN(C(C)C)CC4)c(F)c3c2C(C)C)cn2ncnc12` [Example 18]: the IC50 was found to be 2.6 nM at human TLR8 (setting [1]), 0.76 nM at human TLR7 and 1790 nM at human TLR9 (setting [2]).
Taken in the same sequence, the figures for `COc1cc(-c2[nH]c3cnc(C4CCN(CC(N)=O)CC4)c(F)c3c2C(C)C)cn2ncnc12` [Example 19] were 3 nM, 2 nM and 1760 nM.
`CNC(=O)CN1CCC(c2ncc3[nH]c(-c4cc(OC)c5ncnn5c4)c(C(C)C)c3c2F)CC1` [Example 20]: the IC50 at human TLR8 (setting [1]) was determined as 4.3 nM; on human TLR7, 2.5 nM; at human TLR9 (setting [2]) it was 6550 nM.
Take `COCCN1CCC(c2ncc3[nH]c(-c4cc(OC)c5ncnn5c4)c(C(C)C)c3c2F)CC1` [Example 21]: the results for the IC50 at human TLR8 (setting [1]), against human TLR7 and at human TLR9 (setting [2]) were 2.7 nM, 2 nM and 3340 nM, respectively.
As for `Cc1c(-c2[nH]c3cnc(C4CCN(CC(=O)N(C)C)CC4)c(F)c3c2C(C)C)cn2ncnc2c1C` [Example 22], the IC50 turned out to be 1.8 nM at human TLR8 (setting [1]) and 6.2 nM against human TLR7.
For `COc1cc(-c2[nH]c3cnc(C4CCC(N5CCC5)CC4)c(F)c3c2C(C)C)cn2ncnc12` (stereo not drawn) [Example 46], the 50% inhibitory concentration (IC50) on human TLR8 (setting [1]) stood at 1.6 nM; against human TLR7, 0.98 nM.
Turning to `COc1cc(-c2[nH]c3cnc(N4CCC(N(C)CC(C)(C)C)CC4)c(F)c3c2C(C)C)cn2ncnc12` [Example 47], the IC50 on human TLR8 (setting [1]) amounted to 1.5 nM; at human TLR9 (setting [2]) it was 2580 nM.
For `COc1cc(-c2[nH]c3cnc(C4CCC(N5CC(OC)C5)CC4)c(C)c3c2C(C)C)cn2ncnc12` (stereo not drawn) [Example 62], the IC50 stood at 21 nM on human TLR8 (setting [1]) and 417 nM at human TLR9 (setting [2]).
For the molecule `COc1cc(-c2[nH]c3cnc(C4CCC(N(C)C(C)C)C4)cc3c2C(C)C)cn2ncnc12` (stereo not drawn) [Example 63], the IC50 at human TLR9 (setting [2]) came out at 2990 nM.
For the molecule `Cc1cc(-c2[nH]c3cnc(N4CCC(N(C)C(C)C)CC4)c(F)c3c2C(C)C)cn2ncnc12` [Example 68], the IC50 on human TLR9 (setting [2]) was found to be 5290 nM.
`COc1cc(-c2[nH]c3cnc(C4CCC(NCC(C)(C)O)CC4)c(F)c3c2C(C)C)cn2ncnc12` (stereo not drawn) [Example 74]: the IC50 at human TLR8 (setting [1]) was determined as 0.77 nM; at human TLR9 (setting [2]), 694 nM.
For `COc1cc(-c2[nH]c3cnc(C4CCC(NC5(C)COC5)CC4)c(F)c3c2C(C)C)cn2ncnc12` (stereo not drawn) [Example 105], the figures for the 50% inhibitory concentration (IC50) at human TLR8 (setting [1]) and on human TLR9 (setting [2]) were 0.59 nM and 2250 nM, respectively.
As to `COc1cc(-c2[nH]c3cnc(C4CCC(N(C)C(C)C)C4)cc3c2C(C)C)cn2ncnc12` (stereo not drawn) [Example 145], the IC50 at human TLR9 (setting [2]) is 506 nM.
As for `COc1cc(-c2[nH]c3cnc(C4CCC(NC5CCOCC5)CC4)c(F)c3c2C(C)C)cn2ncnc12` (stereo not drawn) [Example 160], the IC50 at human TLR9 (setting [2]) was 1280 nM.
With `COc1cc(-c2[nH]c3cnc(C4CCC(N5CC(OC)C5)CC4)c(C)c3c2C(C)C)cn2ncnc12` (stereo not drawn) [Example 180], the half-maximal inhibitory concentration (IC50) at human TLR8 (setting [1]) came to 9.6 nM; at human TLR9 (setting [2]), 664 nM.
Consider `COc1cc(-c2[nH]c3cnc(C4CCC(NC5(C)COC5)CC4)c(F)c3c2C(C)C)cn2ncnc12` (stereo not drawn) [Example 192], for which the IC50 was 3.9 nM on human TLR8 (setting [1]) and 3140 nM on human TLR9 (setting [2]).
As to `COc1cc(-c2[nH]c3cnc(C4CCC(NC5CCOCC5)CC4)c(F)c3c2C(C)C)cn2ncnc12` (stereo not drawn) [Example 194], the IC50 on human TLR9 (setting [2]) amounted to 575 nM.
Turning to `COc1cc(-c2[nH]c3cnc(C4CCC(NCC(C)(C)O)CC4)c(F)c3c2C(C)C)cn2ncnc12` (stereo not drawn) [Example 195], the half-inhibitory concentration (IC50) came out at 3 nM at human TLR8 (setting [1]) and 577 nM at human TLR9 (setting [2]).
Turning to `COc1cc(-c2[nH]c3cnc(C4CCC(NCC(C)(C)OC)CC4)c(C)c3c2C(C)C)cn2ncnc12` (stereo not drawn) [Example 206], the concentration for half-maximal inhibition (IC50) at human TLR8 (setting [1]) is 13 nM; at human TLR9 (setting [2]) it was 260 nM.
`COc1cc(-c2[nH]c3cnc(C4CCC(NCC(C)(C)OC)CC4)c(C)c3c2C(C)C)cn2ncnc12` (stereo not drawn) [Example 207]: the half-maximal inhibitory concentration (IC50) amounted to 7.7 nM on human TLR8 (setting [1]) and 437 nM at human TLR9 (setting [2]).
`COc1cc(-c2[nH]c3cnc(N4CCN(CCS(C)(=O)=O)CC4)c(F)c3c2C(C)C)cn2ncnc12` [Example 362]: the results for the IC50 at human TLR8 (setting [1]) and against human TLR7 were 4 nM and 4.9 nM, respectively.
Regarding `COc1cc(-c2[nH]c3cnc(N4CCN(CC(=O)N5CCOCC5)CC4)c(F)c3c2C(C)C)cn2ncnc12` [Example 363], the IC50 turned out to be 3.7 nM on human TLR8 (setting [1]) and 43700 nM at human TLR9 (setting [2]).

The values above are taken from patent US11912703B2, “6-azaindole compounds” (BRISTOL-MYERS SQUIBB COMPANY, priority 2017, dated 2024).
